Here are results for 2 compounds from ChEMBL document CHEMBL1156897, “New potential antitumor compounds from the plant Aristolochia manshuriensis as inhibitors of the CDK2 enzyme” (Bioorg Med Chem Lett, 2010).

pIC50: −log10 of the molar value. Some results are limits rather than exact numbers.

The nature of assay [1]: Inhibition of MAPK.
In assay [2] the target is Cyclin-dependent kinase 4 (Homo sapiens, UniProt P11802). Description: Inhibition of CDK4.
The target in assay [3] is Cyclin-dependent kinase 1 (Homo sapiens, UniProt P06493). Description: Inhibition of CDC2.
Assay [4] addresses Cyclin-dependent kinase 2 (Homo sapiens, UniProt P24941). Description: Inhibition of CDK2.

Cyclin-dependent kinase 1, sequence (P06493 whole entry): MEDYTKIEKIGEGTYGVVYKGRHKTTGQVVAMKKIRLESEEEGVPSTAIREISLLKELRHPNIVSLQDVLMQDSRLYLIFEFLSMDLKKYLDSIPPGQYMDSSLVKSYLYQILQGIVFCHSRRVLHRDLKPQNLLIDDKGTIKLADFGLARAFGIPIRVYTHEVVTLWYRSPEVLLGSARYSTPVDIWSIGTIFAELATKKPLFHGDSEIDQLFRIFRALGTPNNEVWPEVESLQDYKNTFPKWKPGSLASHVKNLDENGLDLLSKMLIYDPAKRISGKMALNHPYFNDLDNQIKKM
Cyclin-dependent kinase 4, sequence (P11802 whole entry): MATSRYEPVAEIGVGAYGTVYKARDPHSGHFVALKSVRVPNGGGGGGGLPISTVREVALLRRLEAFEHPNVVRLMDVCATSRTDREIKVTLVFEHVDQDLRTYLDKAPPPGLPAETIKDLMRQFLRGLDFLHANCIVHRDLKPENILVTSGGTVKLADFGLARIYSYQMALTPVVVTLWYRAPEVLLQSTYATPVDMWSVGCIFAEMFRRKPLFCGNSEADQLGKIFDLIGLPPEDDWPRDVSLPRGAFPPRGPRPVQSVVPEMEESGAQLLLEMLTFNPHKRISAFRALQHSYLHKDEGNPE

In the case of `COc1c(O)cc2c3c(cc4ccc(O)cc4c13)NC2=O` [ARISTOLACTAM AIIIA], the pIC50 in assay [1] is 4.45; in assay [2], 5.85; in assay [3], 6.67; in assay [4] it was 6.85.

As to `O=C1Nc2cc3c(O[C@@H]4O[C@H](CO)[C@@H](O)[C@H](O)[C@H]4O)cccc3c3c4c(cc1c23)OCO4`, the pIC50 in assay [4] was < 5.00.
